Results on 2 compounds are retold here after patent publication US20220162561A1, “COMPOSITION FOR PROMOTING SECRETION OF EXTRACELLULAR VESICLES” (priority 2019, published 2022).

Series [1] relates to U-87 MG cells. The series is described as follows: Test Example 1: promotion of secretion of extracellular vesicles, Tim4-CD9 / Tim4-CD63 ELISA of culture supernatant. The format is cell-based. The following applies: 24 hours. As to the method: For the detection of extracellular vesicles contained in the culture supernatant, the Tim4-CD63 ELISA method or Tim4-CD9 ELISA method mentioned later was used.
To a 384-well plate (#464718 manufactured by Thermo Fisher Scientific K.K.) was added 1 μg/mL Tim4 protein prepared in Carbonate Buffer (a solution containing 71.4 mM NaHCO3 and 28.6 mM Na2CO3), and it was made a solid phase. The 384-well plate was washed with a 0.05% (v/v %) Tween 20-containing TBS (Tris-Buffer Saline) solution (hereinafter sometimes referred to as “TBST solution”), and then, 50 μL/well of a TBST solution containing 1% (w/v %) BSA was added thereto to carry out a blocking treatment for 1 hour. Next, 30 μL of the culture supernatant recovered above was added to the well, and further 10 μL of an 8 mM CaCl2) solution was added thereto to bind extracellular vesicles to the Tim4 protein. At this time, as a comparative object, a compound-untreated culture supernatant (solvent alone, control) was added to the Tim4 protein solid-phased plate in the same manner. Subsequently, 30 μL/well of 1 μg/mL Anti-human CD63 Antibody (#353014 available from BioLegend Inc.) diluted with a TBST solution containing 2 mM CaCl2) was added thereto and the mixture was reacted for 1 hour. To the mixture was added 50 μL/well of a TBST solution containing 2 mM CaCl2), and then, the TBST solution was removed. After repeating this operation three times, 30 μL/well of 80 ng/mL HRP-conjugated Anti-mouse IgG (#405306 available from BioLegend Inc.) diluted with a TBST solution containing 2 mM CaCl2) was added thereto and the mixture was reacted for 1 hour. Finally, 30 μL/well of a TMB solution (#05298-80 available from Nacalai Tesque Inc.) was added to the mixture and the mixture was reacted for 30 minutes, and then, 30 μL/well of a 1M H2504 solution was added thereto to stop the reaction and by measuring an absorbance at 450 nm to detect the amount of the extracellular vesicles. A relative value when the compound-untreated group (control) was made 1 was calculated. […]
(In an ELISA, binding on a coated surface is turned into a signal by an enzyme label.)

The subject of series [2] is U-87 MG cells. The settings on record: concentration of at least about 2 μM or less. As to the method:
After stirring 10 mL of deactivated FBS and 2 mL of a 50% (w/v %) Poly(ethylene glycol) 10,000 solution (#81280 available from Sigma-Aldrich Co., LLC) at 4° C. for 2 hours, extracellular vesicles were precipitated under the centrifugation conditions of 1,500×g at 4° C. for 30 minutes, and the supernatant was recovered to prepare Exosome-free FBS.

For series [3], the system named is 293 cells. Put plainly: Test Examples 10 and 11: promotion of secretion of extracellular vesicles, Tim4-CD63 / Tim4-CD81 ELISA and nanoparticle tracking analysis. The format is cell-based. The settings on record: final concentration 0 to 1 μM, 24 hours. As to the method:
(§1) After stirring 10 mL of deactivated FBS and 2 mL of a 50% (w/v %) Poly(ethylene glycol) 10,000 solution (#81280 available from Sigma-Aldrich Co., LLC) at 4° C. for 2 hours, extracellular vesicles were precipitated under the centrifugation conditions of 1,500×g at 4° C. for 30 minutes, and the supernatant was recovered to prepare Exosome-free FBS. Next, 293 cells (CRL-1573TM available from ATCC) or 293T cells (CRL-3216TM available from ATCC) were suspended in Advanced DMEM (#12491015 available from Thermo Fisher Scientific K.K.) containing 2% (v/v %) Exosome-free FBS with 2×10^4 cells/200 μL, seeded on an adhesive surface 96-well plate (#3595 manufactured by Corning Inc.) and pre-culture was carried out for 24 hours. After 24 hours, the culture solution was removed, a mixed solution of 199.5 μL of 2% (v/v %) Exosome-free FBS-containing Advanced DMEM and 0.5 μL (final concentration: 0 to 1 μM) of the compound of Example 1, 5 or 9 prepared in DMSO was added thereto, and the cells were cultured for 24 hours. Thereafter, the culture solution was recovered in a 1.5 mL tube, the cells were precipitated under centrifugation conditions of 300×g at 4° C. for 5 minutes, and the culture supernatant was recovered. Subsequently, the recovered culture supernatant was subjected to centrifugation under the conditions of 2,000×g at 4° C. for 20 minutes to precipitate cell fragments, and the supernatant was recovered. Further, the recovered supernatant was subjected to centrifugation under the conditions of 10,000×g at 4° C. for 30 minutes, and the supernatant was recovered. For detection of the extracellular vesicles contained in the supernatant after centrifugation of 10,000×g, Tim4-human CD63 ELISA method and Tim4-human CD81ELISA method mentioned later was used.
(§2) <Tim4-Human CD63 ELISA Method>100 μL/well of 1 μg/mL Tim4 protein prepared in Carbonate Buffer (solution containing 71.4 mM NaHCO3 and 28.6 mM Na2CO3) was added to a 96-well plate (#3801-096 manufactured by IWAKI & CO., LTD.) and made it a solid phase. After washing the 96-well plate with a TBST solution, 200 μL/well of the TBST solution containing 1% (w/v %) BSA was added thereto and a blocking treatment for 1 hour was carried out. Next, 90 μL of the supernatant recovered as mentioned above was added to the well, and 10 μL of a 20 mM CaCl2) solution was further added to bind the extracellular vesicles to the Tim4 protein. Subsequently, 100 μL/well of 1 μg/mL Anti-human CD63 Antibody (#353014 available from BioLegend Inc.) diluted with the TBST solution containing 2 mM CaCl2) was added thereto and the reaction was carried out for 1 hour. 200 μL/well of the TBST solution containing 2 mM CaCl2) was added thereto, and thereafter, the TBST solution was removed. […]

Series [4] concerns 293T cells. Described as above. The format is cell-based. The following applies: final concentration 0 to 1 μM, 24 hours. How it is done:
as §1, §2

For series [5], the system named is 293 cells. Put plainly: Test Example 12: cytotoxicity, LDH activity in culture supernatant. The format is cell-based. The following applies: concentration of at least about 0.3 μM or less.
Method: (§3) After stirring 10 mL of deactivated FBS and 2 mL of a 50% (w/v %) Poly(ethylene glycol) 10,000 solution (#81280 available from Sigma-Aldrich Co., LLC) at 4° C. for 2 hours, extracellular vesicles were precipitated under the centrifugation conditions of 1,500×g at 4° C. for 30 minutes, and the supernatant was recovered to prepare Exosome-free FBS. Next, 293 cells (CRL-1573TM available from ATCC) or 293T cells (CRL-3216TM available from ATCC) were suspended in Advanced DMEM (#12491015 available from Thermo Fisher Scientific K.K.) containing 2% (v/v %) Exosome-free FBS with 2×10^4 cells/200 μL, seeded on an adhesive surface 96-well plate (#3595 manufactured by Corning Inc.), and pre-culture for 24 hours was carried out. […] The activity of lactate dehydrogenase (LDH) contained in the culture supernatant was measured using
(§4) Cytotoxicity LDH Assay Kit-WST (#CK12 manufactured by Dojindo Laboratories). […] The reaction was stopped by adding 25 μL of Stop Solution, and the cytotoxicity was evaluated by measuring the absorbance at 490 nm. The activities of LDH of the dead cell group (sample to which 20 μL of Lysis Buffer was added to compound-untreated cells 15 minutes before recovery of the culture solution) and the culture solution (culture solution in which no cell culture was carried out) were also measured in the same manner, and cytotoxicity of each compound was evaluated.
Series [6] relates to 293T cells. Described as above. The format is cell-based. The settings on record: concentration of at least about 0.3 μM or less.
Method: as §3, §4

For `CC(=O)O.Cc1cc2c(C(C)C)c(O)c(O)c(C=O)c2c(O)c1-c1c(C)cc2c(C(C)C)c(O)c(O)c(C=O)c2c1O` (racemic) [Example 1, (±)-Gossypol Acetate], in the series with U-87 MG cells [1] (10 μM), the “secretion of CD9 and/or CD63-positive extracellular vesicles” value is reported as “strongly promoted secretion”. In addition, the “cytotoxicity to U-87 MG cells (LDH amount in the culture supernatant)” value in the series on U-87 MG cells [2] is on record as “low”. Also, the “amount of secretion of CD63 and/or CD81-positive extracellular vesicles” value with 293 cells [3] and with 293T cells [4] was “promotes” in each case. In addition, the “cytotoxicity (LDH amount in the culture supernatant)” value in the series on 293 cells [5] and in the series on 293T cells [6] was “low cytotoxicity” throughout.

Turning to `COC1=CC(c2cc3ccccc3[nH]2)=N/C1=C\c1[nH]c(C)cc1C.CS(=O)(=O)O` [Example 5, Obatoclax Mesylate], in the series with U-87 MG cells [1] (5 μM), the “secretion of CD9 and/or CD63-positive extracellular vesicles” value is given as “promotes secretion” and the “secretion of CD63-positive extracellular vesicles” value is reported as “strongly promoted secretion”. The “amount of secretion of CD63 and/or CD81-positive extracellular vesicles” value in the series with 293 cells [3] is given as “promotes”. Moreover, the “amount of secretion of CD63 and/or CD81-positive extracellular vesicles” value with 293T cells [4] is recorded as “promotes”.
